Measured values taken from US20260232703A1, “USE OF A SYK INHIBITOR FOR THE TREATMENT OF CHEMICAL OR RADIATION INDUCED LUNG INJURY” (Rigel Pharmaceuticals, Inc., priority 2023, published 2026).
≈ marks a conversion by molar mass, not a printed value.

Columns and labels:
[1] = Water solubility in aqueous buffer under physiological conditions; type: physicochemical
[2] = tested on: WAG/RijCmcr rats, leg-out PBI irradiated; test: Leg-out PBI rat model of radiation-induced lung injury (RILI), lung histology; type: in vivo; settings: 13.5 Gy (female) or 13 Gy (male) leg-out PBI rats; fostamatinib 10 or 20 mg/kg; H&E lung sections, 5-point scale; versus untreated irradiated rats
Text: Irradiation. Leg-out PBI rat models: WAG/RijCmcr female and male rats are unilaterally irradiated, dorsal to ventral, without the use of anesthetics at 11-12 weeks of age. Irradiations are done between 8-10 am. For leg-out PBI, non-anesthetized rats are immobilized in a plastic jig and irradiated using a […] orthovoltage x-ray system (Precision X-Ray, North Branford, Connecticut). […] Doses can range from 13-14.5 Gy for female rats and 12.5-14.5 Gy for males. During irradiation, each rat is confined to a chamber which allows irradiation of 2 rats simultaneously. One hind limb of each rat is carefully externalized from the chamber and shielded with a 0.25-inch lead block. […] Whole mount lung sections (4 μm thick) are stained with hematoxylin and eosin (H&E) and also stained with tryptase antibody (IMGENEX catalogue #IMG-80250, 1:150) (Gao et al. Radiat Res 179: 465-74; 2013. [PubMed: 23480564]) and five randomly selected fields (20×) of each lung are evaluated. The foamy macrophages, vascular, and alveolar wall thickness are scored as described previously (Medhora et al. Radiat Res 182: 545-55; 2014. [PubMed: 25361399]; Medhora et al. J Radiat Res 56: 248-60; 2015. [PubMed: 25368342]); injury is measured on a 5-point scale and a mean composite lung injury score is calculated. Mast cells are assessed by positive tryptase staining in five randomly selected fields (20×) of each lung. […]

solubility [1] [µg/mL]	solubility of phosphate prodrug relative to active drug (Compound 1) ([1]; Compound 4 vs Compound 1)	Compound	mean composite lung injury score [2]
> 5000	approximately 2000 times greater	COc1cc(Nc2ncc(F)c(Nc3ccc4c(n3)N(COP(=O)(O)O)C(=O)C(C)(C)O4)n2)cc(OC)c1OC [Compound 4]	lower
1 to 2 (≈ 2.13 to 4.25 µM)	–	COc1cc(Nc2ncc(F)c(Nc3ccc4c(n3)NC(=O)C(C)(C)O4)n2)cc(OC)c1OC [Compound 1, N4-(2,2-Dimethyl-3-oxo-4H-5-pyrid[1,4]oxazin-6-yl)-5-fluoro-N2-(3,4,5-trimethoxyphenyl)-2,4-pyrimidinediamine]	–
